According to patent US10815183B2, “Substituted aromatic compounds and pharmaceutical uses thereof” (PROMETIC PHARMA SMT LIMITED, priority 2009, dated 2020):
Each block holds one compound with its values, some of them ahead of it.

How the values were obtained:
bone marrow cells = test: Chemoprotection studies: bone marrow and blood cell counts in cyclophosphamide immunosuppressed mice (hematopoiesis/erythropoiesis); assay type: in vivo, C57BL/6 mice; conditions: for In Vivo Results: effect on hematopoiesis/erythropoiesis: degree of activity compared to the activity of compound I; for Red Blood Cells (10^9) / Red Bone Marrow Cells (10^6): mice, cyclophosphamide 200 mg/kg iv day 0, compound oral pre-treatment day -3, -2, -1, sacrifice day +5
Experimental: Female C57BL/6 mice, 6 to 8 week old, were immunosuppressed by treatment with 200 mg/kg of cyclophosphamide administered intravenously at day 0. To examine the immunoprotective effect of compound I, mice were pre-treated orally at day −3, −2 and −1 with the compound. Mice were sacrificed at day +5 by cardiac puncture and cervical dislocation. Then, a gross pathological observation of the femurs (as a source of bone marrow cells) was recorded. After the sacrifice, tissues were crushed in PBS buffer and cells were counted on a hemacytometer.
Additional compounds related to compound I were also prepared and tested for biological activity.

PGE2 = test: LPS-induced inflammation in the rat air-pouch model, PGE2 in pouch exudates by ELISA; assay type: in vivo, Lewis rats
Description: LPS-induced inflammation in the rat air-pouch model is believed to mimic the pathological process occurring in joint diseases such as arthritis. This is because the connective tissues formed along the air pouch are similar to those found in chronic joint diseases. LPS-induced inflammation and chronic joint diseases share other features, including markedly elevated PGE2, neutrophil infiltration, cytokine formation, and tissue damage.
An air cavity was produced at day −6 by subcutaneous injection of 20 ml of sterile air into the […] area of the back of male Lewis rats (175-200 g). An additional 10 ml of air was injected into the cavity at day −3 to keep the space open. At day 0, compounds were administered intravenously and one hour later lipopolysaccharide (LPS: 2.5 ml, 2 μg/ml in PBS) was injected into the pouch to produce an inflammatory reaction. Two hours after treatment with LPS, animals were euthanized by CO2 asphyxiation and 5 ml of PBS/heparin (10 U/ml)/indomethacin (36 μg/ml) was injected into the pouch. The pouch fluid was collected and PGE2 was determined in the pouch exudates by ELISA.

[1] = Kidney protection in 5/6 nephrectomized (Nx) rat model, GFR (creatinine clearance); assay type: in vivo, Wistar rats
Description: (§1) Male 6 week-old Wistar rats were subjected to ⅚ nephrectomy or sham operations. Under fluothane anesthesia, renal ablation was achieved by removing two-thirds of the left kidney followed by a right unilateral nephrectomy 7 days later. Sham rats underwent exposition of the kidneys and removal of the perirenal fat. Twenty-one days after the first operation, rats were randomized in the study by their reduced glomerular filtration rate (GFR) of creatinine indicating a dysfunction of the kidney. Animals that underwent the sham operation were given vehicle (saline) and were used as controls. Nx animals were divided in groups receiving the vehicle or Compound I. Saline or Compound I was given by gastric gavage once daily up to the sacrifice. GFR was measured every three weeks in order to assess the severity of this end-stage renal disease model. Rats were sacrificed at day 190.

[2] = Heart protection in 5/6 nephrectomized rats, blood pressure; assay type: in vivo; conditions: Nx rats (FIG. 7)
Description: as §1

[3] = Doxorubicin-induced nephrotoxicity model: serum albumin, serum creatinine, histological kidney lesions; assay type: in vivo, C57Bl/6 mice; conditions: for serum creatinine increase induced by doxorubicin: mice (FIG. 9)
Experimental: (§2) C57Bl/6 mice (6-10 week-old) were treated with Compound I prophylacticly from day −3 to day 10 or treated therapeutically from day 1 to 10. Nephrotoxicity was induced by an intravenous injection of 10 mg/kg of doxorubicin at day 0. Serum albumin and creatinine were monitored at days 4, 7, 9 and 11.
Doxorubicin is well known to induce nephro- and cardiotoxicity. FIG. 10 represents the histological kidney lesions score as determined by histochemistry in the doxorubicin-induced nephrotoxicity model.
Doxorubicin induces early lesions primarily at the tubular region. Toxicity is further extended to the glomerulus (around day 11 post-doxorubicin). FIG. 11 represents the histological micrographs of doxorubicin-induced lesions in control and Compound I-treated (prophylactic treatment) mice. Doxorubicin induces kidney cell apoptosis, fibrosis, sclerosis and accumulation of proteins in affected tubular regions.

CTGF = assay type: in vivo, C57Bl/6 mice; conditions: pre-treatment, doxorubicin-treated mice (FIG. 12)
Experimental: as §2

TGF-β = TGF-β mRNA expression in kidneys from doxorubicin-treated mice; assay type: in vivo, C57Bl/6 mice
Experimental: as §2
CTGF is also regulated by TGF-β. FIG. 13 illustrates the mRNA expression of TGF-β in kidneys. Doxorubicin increases by 73% the mRNA expression of TGF-β in kidneys. Pre-treatment with Compound I induces a 26% decrease of TGF-β expression.

SMILES: CCCCCc1cccc(CC(=O)[O-])c1.[Na+] [Compound I, Sodium Salt of 3-Pentylphenylacetic Acid]
circulating red blood cells (in words) (bone marrow cells; cyclophosphamide immunosuppressed mice): increases
In Vivo Results: effect on hematopoiesis/erythropoiesis (bone marrow cells): +++ (+++ designates 70 to 100% of compound I activity)
Red Blood Cells (10^9) (bone marrow cells): 7.0 10^9
Red Bone Marrow Cells (10^6) (bone marrow cells): 11.5 10^6
red bone marrow cell count (in words) (bone marrow cells; oral pre-treatment, cyclophosphamide immunosuppressed mice): increase
white bone marrow cell count (bone marrow cells; oral pre-treatment, cyclophosphamide immunosuppressed mice (FIG. 2)): increase
total bone marrow cell count (bone marrow cells; oral pre-treatment, cyclophosphamide treated mice (FIG. 1)): significant increase
inhibition of PGE2 compared with positive control indomethacin (PGE2; two hours after LPS): similar
inhibition of PGE2 (PGE2; two hours after administration of LPS (FIG. 3)): significant inhibition
improvement of GFR compared to initial GFR (before treatment) at day 21 ([1]; Nx rats over treatment period, Nx control 50% deterioration (FIG. 6)): 50%
improvement of GFR (creatinine clearance) ([1]; Nx rats, gastric gavage once daily, day 190 (FIG. 5)): two-fold
blood pressure [2]: significant decrease
histological kidney lesions at the tubular level induced by doxorubicin ([3]; prophylactic (pre-doxorubicin) and therapeutic (post-doxorubicin) treatments (FIG. 10)): reduce the kidney lesions
protection of the kidney against doxorubicin toxicity (histological micrographs) ([3]; prophylactic or therapeutic treatment (FIG. 11)): protects the kidney
serum albumin decrease induced by doxorubicin ([3]; prophylactic treatment day -3 to day 10, oral, mice (FIG. 8)): inhibits the decrease
serum creatinine increase induced by doxorubicin ([3]; prophylactic treatment day -3 to day 10, oral): inhibits the increase
serum albumin level induced by doxorubicin ([3]; therapeutic treatment day 1 to 10, oral, mice (FIG. 8)): no effect
serum creatinine increase induced by doxorubicin ([3]; therapeutic treatment day 1 to 10, oral): inhibits the increase
CTGF expression in kidneys (CTGF): significant decrease
decrease of TGF-β expression in kidneys (TGF-β; pre-treatment, doxorubicin-treated mice (FIG. 13)): 26%

SMILES: CCC/C=C/c1cccc(CC(=O)[O-])c1.[Na+] [Compound II, Sodium Salt of E-(3-pent-1-enyl-phenyl)acetic Acid]
In Vivo Results: effect on hematopoiesis/erythropoiesis (bone marrow cells): +++ (+++ designates 70 to 100% of compound I activity)

SMILES: CCCCCc1ccc(O)c(CC(=O)[O-])c1.[Na+] [Compound III, Sodium salt of (2-hydroxy-5-pentylphenyl)acetic Acid]
In Vivo Results: effect on hematopoiesis/erythropoiesis (bone marrow cells): + (+ designates 5-40% of compound I activity)

SMILES: CCCCCc1cc(CCC(=O)[O-])ccc1F.[Na+] [Compound IV, Sodium Salt of 3-(4-fluoro-3-pentylphenyl)propionic Acid]
In Vivo Results: effect on hematopoiesis/erythropoiesis (bone marrow cells): +++ (+++ designates 70 to 100% of compound I activity)

SMILES: CCCCc1cccc(CCC(=O)[O-])c1.[Na+] [Compound IX, Sodium Salt of 3-(3-butylphenyl)propionic Acid]
In Vivo Results: effect on hematopoiesis/erythropoiesis (bone marrow cells): ++ (++ designates 40-70% of compound I activity)

SMILES: CCCCCc1cccc(CCC(=O)[O-])c1.[Na+] [Compound V, Sodium Salt of 3-(3-pentylphenyl)propionic Acid]
In Vivo Results: effect on hematopoiesis/erythropoiesis (bone marrow cells): ++ (++ designates 40-70% of compound I activity)

SMILES: CCCCCc1cccc(C(C)(C)C(=O)[O-])c1.[Na+] [Compound VI, Sodium Salt of 2-Methyl-2-(3-pentylphenyl)propionic Acid]
In Vivo Results: effect on hematopoiesis/erythropoiesis (bone marrow cells): ++ (++ designates 40-70% of compound I activity)

SMILES: CCCCCc1cccc(C(CO)C(=O)[O-])c1.[Na+] (stereo not drawn) [Compound VII, Sodium Salt of 3-Hydroxy-2-(3-pentyl-phenyl)propionic Acid]
In Vivo Results: effect on hematopoiesis/erythropoiesis (bone marrow cells): +++ (+++ designates 70 to 100% of compound I activity)

SMILES: CCCCCc1cccc(C(C)C(=O)[O-])c1.[Na+] (stereo not drawn) [Compound VIII, Sodium Salt of 2-(3-pentylphenyl)propionic Acid]
In Vivo Results: effect on hematopoiesis/erythropoiesis (bone marrow cells): ++ (++ designates 40-70% of compound I activity)

SMILES: C/C=C\CCc1cccc(CC(=O)[O-])c1.[Na+] [Compound X, Sodium Salt of E/Z-(3-Pent-3-enylphenyl)acetic Acid]
In Vivo Results: effect on hematopoiesis/erythropoiesis (bone marrow cells): +++ (+++ designates 70 to 100% of compound I activity)

SMILES: CCCCCc1cc(O)cc(CC(=O)[O-])c1.[Na+] [Compound XI, Sodium Salt of [3-Hydroxy-5-pentylphenyl]acetic acid]
In Vivo Results: effect on hematopoiesis/erythropoiesis (bone marrow cells): ++++ (++++ designates greater activity than compound I)

SMILES: CCCCCc1ccc(C(=O)[O-])cc1.[Na+] [Compound XII, Sodium Salt of 4-Pentylbenzoic Acid]
In Vivo Results: effect on hematopoiesis/erythropoiesis (bone marrow cells): ++ (++ designates 40-70% of compound I activity)

SMILES: CCCCCCc1cccc(C(=O)[O-])c1.[Na+] [Compound XIII, Sodium Salt of 3-Hexylbenzoic Acid]
In Vivo Results: effect on hematopoiesis/erythropoiesis (bone marrow cells): +++ (+++ designates 70 to 100% of compound I activity)

SMILES: CCCCc1ccc2c(c1)CC(C(=O)[O-])C2.[Na+] (stereo not drawn) [Compound XIV, Sodium Salt of 5-Butylindan-2-carboxylc Acid]
In Vivo Results: effect on hematopoiesis/erythropoiesis (bone marrow cells): ++ (++ designates 40-70% of compound I activity)

SMILES: O=P1(N(CCCl)CCCl)NCCCO1 (stereo not drawn) [Cyclophosphamide, reference compound]
Red Blood Cells (10^9) (bone marrow cells): 5.7 10^9
Red Bone Marrow Cells (10^6) (bone marrow cells): 8.1 10^6

increase of mRNA expression of TGF-β in kidneys (TGF-β; doxorubicin 10 mg/kg iv, mice): 73%
SMILES: COc1cccc2c1C(=O)c1c(O)c3c(c(O)c1C2=O)C[C@@](O)(C(=O)CO)C[C@@H]3O[C@H]1C[C@H](N)[C@H](O)[C@H](C)O1 [Doxorubicin, reference compound]
histological kidney lesions induced ([3]; doxorubicin 10 mg/kg iv day 0, mice, day 7 and 11): significant kidney lesions

SMILES: CCCCCc1cccc(CC(=O)[O-])n1.[Na+] [XVI]
In Vivo Results: effect on hematopoiesis/erythropoiesis (bone marrow cells): ++ (++ designates 40-70% of compound I activity)

SMILES: CCCC/C=C/c1cccc(CC(=O)[O-])c1.[Na+] [XV]
In Vivo Results: effect on hematopoiesis/erythropoiesis (bone marrow cells): ++ (++ designates 40-70% of compound I activity)
